Measured values as given in US20220024879A1, “COMPOUNDS FOR TREATMENT OF HEPACI VIRUS INFECTION AND METHOD FOR DETERMINING THERAPY OF HEPACI VIRUS INFECTION, IN PARTICULAR, HCV INFECTION” (priority 2018, published 2022).

What was measured:
[1] = system: Jc1 and HCV strains Con1 (GT1b), J8 (GT2b), S52 (GT3a), ED43 (GT4a), SA13 (GT5a), HK6a (GT6a) and QC69 (GT7a); type: cell-based; details: Jc1 versus GT1b, 2b, 3a, 4a, 5a, 6a, 7a strains
JcR2a-Flun-R [2] = type: cell-based
JcR2a/J8-E1-R3.2_4 aa = type: cell-based, Hepatitis C virus; details: M290A, W299N, V301T, P310Q
J8 (GT2b) = type: cell-based
JcR2a = assay: HCV whole life cycle compound screening assay; type: cell-based, Hepatitis C virus; details: Jc1 reporter virus, versus flunarizine
Jc1/J8-E1_R3 = type: cell-based; details: Aa 267-312
[3] = system: low pH-triggered HCV cell membrane fusion; details: earlier work of the applicant, data not shown; cited from earlier work
JcR2a-E1 R4 = type: cell-based; details: 313-383
Jc1R2a/J8-E1 chimera = type: cell-based; details: entire E1 replaced
JcR2a-Flun-R [4] = details: Jc1 passaged in presence of flunarizine; Perin et al.; cited from earlier work
JcR2a/J8-E1_R1 = type: cell-based; details: Aa 192-230
[5] = system: low pH-triggered HCV cell membrane fusion; assay: Fusion at the plasma membrane assay; type: cell-based, Hepatitis C virus; details: 5 nM Con A, pH 5.0 wash 5 minutes

Compound | strain-dependent antiviral activity (in words) [1] | resistance of JcR2a/J8-E1-R3.2_4 aa, shift of the IC50 versus parental JcR2a (JcR2a/J8-E1-R3.2_4 aa) | resistance of J8 (GT2b) (in words) (J8 (GT2b)) | antiviral activity, effect of the substituent (SAR, in words) (JcR2a) | other results
COc1cc(/C=C/C(=O)CC(=O)/C=C/c2ccc(O)c(OC)c2)ccc1O [curcumin] | similarly active against all tested viruses | not |  |  | inhibition of JcR2a-Flun-R compared with JcR2a (in words) (JcR2a-Flun-R [2]): equally inhibited
CN1CCN(C(c2ccccc2)c2ccc(Cl)cc2)CC1 (centres unmarked) [chlorcyclizine] | preferentially inhibited Jc1 | 6 fold | pronounced resistance |  | 
C/C(=C\c1ccccc1)CN1CCN(C(c2ccc(F)cc2)c2ccc(F)cc2)CC1 [entry 20] |  |  |  | not beneficial | 
Fc1ccc(C(c2ccc(F)cc2)N2CCN(C/C=C/c3ccccc3)CC2)cc1 [flunarizine] | preferentially inhibited Jc1 | 8 fold | pronounced resistance |  | susceptibility of chimera with J8 E1 region R3 (in words) (Jc1/J8-E1_R3): resistance profile comparable to Jc1 encoding the flunarizine resistance mutations; antiviral activity when applied only during the 5 minute low pH wash [3]: full antiviral activity; susceptibility of chimera with J8 E1 region R4 (in words) (JcR2a-E1 R4): partial resistance; susceptibility of chimeric virus with J8-derived E1 (in words) (Jc1R2a/J8-E1 chimera): resistant; resistance conferred by three mutations in E1 and E2 (JcR2a-Flun-R [4]): ca. 50 fold; susceptibility of chimera with J8 E1 region R1 (in words) (JcR2a/J8-E1_R1): partial resistance
COc1ccc(-c2cc(=O)c3c(O)c(O)c(OC)cc3o2)cc1 [BJ486K] |  |  |  |  | inhibition of HCV infection when administered only during the low pH washing step [5]: did not inhibit HCV infection
p-methoxy-flunarizine |  |  | pronounced resistance | beneficial | dose at which cell viability of treated cells was reduced by 50% (Huh-7.5-fluc cells): 9.6 µM
